How the values were obtained:
[1] = test system: N-acyl-pipecolic acid acylase; assay: Alternative substrates: activity of semi-purified enzyme preparation on N-acetylamino-acids; format: biochemical, Alcaligenes denitrificans; conditions: 1 ml substrate 40 g/l + 0.5 ml enzyme + 0.5 ml 100 mM Tris buffer pH 7.5; 24-25° C., 1 hour
Procedure: The sonicate supernatants were then used in the following biotransformation reactions. To 1 ml of the sonicate supernatants, 1 ml of 40 g/l solution of N-acetyl-rac-pipecolate, pH 7, was added in the presence of 0.02% sodium azide. The biotransformation reaction mixtures were incubated with shaking for 48 h at 25° C., after which samples were removed and analysed by HPLC. HPLC analysis was done using a 15 cm Hichrom S50DS2 column with an isocratic mobile phase of 30% methanol:70% 10 mM potassium phosphate buffer, pH 3, at a flow rate of 1 ml/min. The injection volume was 20 μl and the detection was at 240 nm, total run time was 10 minutes. Prior to loading on to the column, the sample was diluted 20-fold in the HPLC mobile phase and centrifuged. The analyses as shown by this procedure provided values of residual substrate concentrations. A substrate control was run in parallel with the sample reactions.
(§1) The activity of a semi-purified enzyme preparation, as described in Example 4, was tested on a range of alternative substrates. Various N-acetylamino-acid solutions were prepared at a concentration of 40 g/l in 100 mM Tris buffer at pH 7.5. Reactions were then set up using 1 ml of reaction substrate plus 0.5 ml enzyme plus 0.5 ml 100 mM Tris buffer, pH 7.5. The reaction mixtures were shaken at 24°-25° C. for 1 hour before being analysed for amino-acid formation. The extent of reaction for the N-acetylpipecolic acid and N-acetylproline biotransformations was determined using the HPLC methodology described in Example 1. The extent and enantioselectivity of the other biotransformations was determined using a Nucleosil Chiral-1 (ET250/8/4 with a buffer phase of 1 mM copper acetate at pH 5 in 5% methanol, and a flow rate of 0.8 ml/min, with detection at 254 nm. Samples were diluted 100-fold and areas compared to relevant standards.

[2] = test system: N-acylamino-acid acylase of EP-A-0416282; conditions: cited from earlier work
[3] = test system: N-acyl-pipecolic acid acylase (amino acylase); assay: Alternative buffers: effect of high phosphate on the biotransformation; format: biochemical, Alcaligenes denitrificans; conditions: for Amino-acid formed: pH 7.5
Procedure: as §1
The acylase disclosed in EP-A-0416282 is inhibited by reaction in buffers containing phosphate at high concentrations. The effect of high phosphate on the biotransformation was determined using a similar methodology to that described in Example 6.

[4] = test system: N-acetyl-pipecolic acid acylase activity; assay: Use of inducer: flask cultures with additive, acylase activity of the cell extract; format: cell-based, Alcaligenes denitrificans; conditions: for Specific (activity) / Volumetric Activity: additive in growth medium (5 g/l), extract used in 24 hour biotransformation of 20 g/l N-acetyl-(R,S)-pipecolic acid, 1U = release of 1 μmole pipecolic acid per minute
Procedure: It has been observed by other workers that an inducer must be added to the fermentation medium to obtain N-acyl-amino-acid acylase activity. This adds to the cost of producing the enzyme. Flask cultures were set up to determine the requirement for an inducer. Medium used was similar to that described in Table 1, except that the N-acetyl-L-phenylalanine was omitted, 1 g/l yeast extract was added and the following 4 variations were set up.
The final pH of all flasks was adjusted to pH 7.0 and a total of 50 ml added to 500 ml conical flasks. Following inoculation, the flasks were incubated at 25° C. with shaking for 19 hours. The cells were then collected by centrifugation, resuspended in 10 mM phosphate buffer, pH 7 and lysed by sonication. The released enzyme extract was then used in a 24 hour biotransformation of 20 g/l N-acetyl-(R,S)-pipecolic acid.
1U = release of 1 μmole pipecolic acid per minute

CC(=O)NC(Cc1ccc(C#N)cc1)C(=O)O (racemic) [N-acetyl-(R,S)-4-cyanophenylalanine]
Amino-acid formed [1]: 8.3 g/L

CC(=O)NC(C)C(=O)O (racemic) [N-acetyl-(R,S)-alanine]
activity of the enzyme against substrate ([2]; enzyme of EP-A-0416282): non-detectable | Amino-acid formed [1]: 3.4 g/L

CC(=O)NC(CCC(=O)O)C(=O)O (racemic) [N-acetyl-(R,S)-glutamic acid]
Amino-acid formed [1]: 0.2 g/L

CC(=O)NC(Cc1ccccc1)C(=O)O (racemic) [N-acetyl-(R,S)-phenylalanine]
activity of the enzyme against substrate ([2]; enzyme of EP-A-0416282): non-detectable | Amino-acid formed [1]: 5.3 g/L

CC(=O)N1CCCCC1C(=O)O (racemic) [N-acetyl-(R,S)-pipecolic acid]
Amino-acid formed [1]: 6.3 g/L | Amino-acid formed ([3]; 100 mM Phosphate): 6.3 g/L | Amino-acid formed ([3]; 100 mM Tris): 6.3 g/L | Specific (activity) [4]: 0.086 U/mg protein | Volumetric Activity [4]: 0.017 U/ml

O=C[C@H](O)[C@@H](O)[C@H](O)[C@H](O)CO [Glucose]
N-acetyl-pipecolic acid acylase activity of the flask ([4]; additive 5 g/l in growth medium): no N-acetyl-pipecolic acid acylase activity | Volumetric Activity [4]: 0.00 U/ml

CC(=O)N1CCC[C@H]1C(=O)O [N-acetyl-(S)-proline]
Amino-acid formed [1]: 3.2 g/L | Amino-acid formed ([3]; 100 mM Phosphate): 3.2 g/L | Amino-acid formed ([3]; 100 mM Tris): 3.2 g/L | Specific (activity) [4]: 0.033 U/mg protein | Volumetric Activity [4]: 0.042 U/ml

CC(=O)NCCCC[C@H](N)C(=O)O [εN-acetyl-(S)-lysine]
Amino-acid formed [1]: 0.0 g/L

N-acyl-pipecolic acid
activity of the enzyme relative to its activity on N-acetyl-proline ([2]; enzyme of EP-A-0416282): less than 5%

phosphate
inhibition of the acylase by buffer ([2]; buffers containing phosphate at high concentrations): inhibited | inhibitory effect on the amino acylase ([3]; final phosphate concentration equal to or greater than 75 mM): no significant inhibitory effect
